Literature values in paper PMC5721631 (BMJ Open Ophthalmology, 2017).

System: adrenal cortisol biosynthesis (CYP11B1)
Conditions: single oral administration

Structure (SMILES): CC(C)(C(=O)c1cccnc1)c1cccnc1 [Metpyrapone, metyrapone]
- plasma cortisol reduction from baseline: Up to about 80% plasma cortisol reduction from baseline
